# Several values for one entry are separate records, joined by “and”; a condition that tells them apart may be missing. Equal entries are not always repeated. Where two headings read alike, the source gives them in different places. Marks after values point to notes of the source that are not given here.
# Assays:
# [1] = Storage stability in solutions and hornbeam bark extracts (UHPLC-DAD); format: physicochemical; conditions: for k / t1/2: storage 23 weeks
# Description: (§1) For the analysis of the samples from the chemical stability as well as the PAMPA studies, sample concentrations were determined using our previously developed ultrahigh-performance liquid chromatography–diode array detection (UHPLC-DAD) method validated for linearity, precision and accuracy. Briefly, an ACQUITY UPLC H-Class PLUS System hyphenated with a quaternary solvent delivery pump (QSM), an auto-sampler manager (FTN), a column compartment (CM) and a photodiode array (PDA) detector (Waters Corporation) was employed. Stationary phase: Acquity BEH C18 column (100 × 2.1 mm i.d., 1.7 µm; Waters Corporation), column temperature: 30 °C. The mobile phase consisted of 0.3% acetic acid in water (eluent A) and acetonitrile (eluent B). The following gradient elution was applied at a flow rate of 0.3 mL/min: 0 min 12.0% B, 19.0 min 13.5% B, 25.5 min 75.0% B, 26.0 min 100.0% B, 28.0 min 100.0% B, 28.5 min 12.0% B.
# (§2) We used the following equations to calculate the first-order reaction rate constant (k) and the half-life (t1/2) indicating the time required to reduce the concentration of diarylheptanoids by 50% [29]:ln (ct/c0) = −k × t(1) t1/2 = −ln 0.5 × k^−1(2) where ct is the concentration of the diarylheptanoids at time t, c0 is the initial concentration, k is the reaction rate constant, t is the treatment time.
# The chemical stability of the isolated compounds in solutions was examined at a concentration of 50 µg/mL in methanol and water (in the latter case using methanol as co-solvent, final composition: water-methanol 90:10, v/v). Furthermore, the methanol and ethyl acetate extracts of C. betulus bark (concentration 4 mg/mL) were also studied in order to assess the effects of the accompanying substances. The storage stability studies were performed at a neutral pH value. All solutions were filtered through Phenex-RC 15 mm, 0.2 μm syringe filters (Gen-Lab Ltd., Budapest, Hungary). The samples were prepared in triplicate and stored protected from light at 22 ± 2.0 °C, 5 ± 1.5 °C and −15 ± 2.0 °C for 23 weeks. Quantities of the analytes of interest were quantified at weeks 12 and 23 using the abovementioned UHPLC-DAD method (see Section 3.4).
# The effects of the temperature and the medium (i.e., solvent and accompanying substances) were analysed through one-way analysis of variance (ANOVA) followed by Tukey’s post hoc HSD test (p < 0.05). To establish the kinetic parameters t1/2 and k, Equations (1) and (2) were applied, respectively.
# [2] = Aqueous stability at biorelevant pH values, 37 °C (UHPLC-DAD); format: physicochemical; conditions: for half-life at 100 µM / degradation rate constant k: first-order; for half-life at 100 µM: read-out: half-life t1/2 (converted)
# Description: as §1
# The buffers modelling the gastric fluid (pH 1.2), the intestinal fluid (pH 6.8) and the blood and the tissues (pH 7.4) were prepared as follows. Buffer pH = 1.2: 1.0 g NaCl and 3.5 mL HCl dissolved in distilled water, final volume: 500.0 mL. Buffer pH = 6.8: 20.2 g Na2HPO4∙7H2O and 3.4 g NaH2PO4∙H2O dissolved in distilled water, final volume: 1000.0 mL, pH adjustment with 0.5 M NaOH or 0.5 M HCl. Buffer pH = 7.4: one PBS tablet dissolved in 200.0 mL distilled water. The stock solutions of compounds 1–4 were prepared with dimethyl sulfoxide (DMSO) at a concentration of 10.0 mM. The stock solutions were diluted 100-fold with each buffer separately to obtain the working solutions (297.0 μL buffer + 3.0 μL stock solution). All working solutions were filtered through Phenex-RC 15 mm, 0.2 μm syringe filters (Gen-Lab Ltd., Budapest, Hungary). The samples were incubated for 81 h at 37 °C; aliquots were taken for analysis every 9 h in accordance with the time required to quantify the analytes of interest in one set of samples. The total incubation time of 81 h was applied to obtain data for ten measurement points. The previously described UHPLC-DAD method was used to examine the changes in compound concentrations (see Section 3.4).
# For the determination of pH stability, the initial AUC values were compared with the data after 9 and 81 h using paired-sample t test; significant difference was reported at p < 0.05. The effects of the pH were analysed through one-way analysis of variance (ANOVA) followed by Tukey’s post hoc HSD test (p < 0.05). All experiments were performed in triplicates (n = 3).
# as §2
smiles,measurement,setting,value
"O=C1C[C@H](O)[C@@H](O)Cc2ccc(O)c(c2)-c2cc(ccc2O)C[C@H]1O [Compound 1, carpinontriol A]",k,"[1]; 5 °C, SA (aqueous solution)",4.47 × 10^−3 Week^−1
same,t1/2,"[1]; 5 °C, SA (aqueous solution)",147.48 Week
same,k,"[1]; 5 °C, SM (methanol solution)",1.40 × 10^−2 Week^−1
same,concentration as compared to the initial value,"[1]; 12 weeks, 5 °C, EE (ethyl acetate extract of bark)",104.6 ± 1.0 ^#bcg %
same,concentration as compared to the initial value,"[1]; 12 weeks, 5 °C, EM (methanol extract of bark)",110.1 ± 6.2 ^bc %
same,concentration as compared to the initial value,"[1]; 12 weeks, 5 °C, SA (aqueous solution)",91.4 ± 0.2 ^#def %
same,concentration as compared to the initial value,"[1]; 12 weeks, 5 °C, SM (methanol solution)",90.8 ± 2.3 ^#def %
same,concentration as compared to the initial value,"[1]; 12 weeks, 22 °C, EE (ethyl acetate extract of bark)",110.9 ± 3.6 ^#bc %
same,concentration as compared to the initial value,"[1]; 12 weeks, 22 °C, EM (methanol extract of bark)",114.0 ± 2.2 ^#b %
same,concentration as compared to the initial value,"[1]; 12 weeks, 22 °C, SA (aqueous solution)",61.7 ± 5.7 ^#a %
same,concentration as compared to the initial value,"[1]; 12 weeks, 22 °C, SM (methanol solution)",63.5 ± 8.7 ^#a %
same,concentration as compared to the initial value,"[1]; 12 weeks, −15 °C, EE (ethyl acetate extract of bark)",100.5 ± 0.5 ^ceg %
same,concentration as compared to the initial value,"[1]; 12 weeks, −15 °C, EM (methanol extract of bark)",108.7 ± 1.5 ^#bc %
same,concentration as compared to the initial value,"[1]; 12 weeks, −15 °C, SA (aqueous solution)",93.5 ± 0.4 ^#ef %
same,concentration as compared to the initial value,"[1]; 12 weeks, −15 °C, SM (methanol solution)",94.0 ± 0.8 ^#efg %
same,k,"[1]; 22 °C, SA (aqueous solution)",5.97 × 10^−2 Week^−1
same,t1/2,"[1]; 22 °C, SA (aqueous solution)",11.61 Week
same,k,"[1]; 22 °C, SM (methanol solution)",4.53 × 10^−2 Week^−1
same,t1/2,"[1]; 22 °C, SM (methanol solution)",15.30 Week
same,concentration as compared to the initial value,"[1]; 23 weeks, 5 °C, EE (ethyl acetate extract of bark)",92.1 ± 1.3 ^#def %
same,concentration as compared to the initial value,"[1]; 23 weeks, 5 °C, EM (methanol extract of bark)",84.1 ± 1.1 ^#dfi %
same,concentration as compared to the initial value,"[1]; 23 weeks, 5 °C, SA (aqueous solution)",87.2 ± 0.4 ^#dfi %
same,concentration as compared to the initial value,"[1]; 23 weeks, 5 °C, SM (methanol solution)",67.1 ± 7.5 ^#aj %
same,concentration as compared to the initial value,"[1]; 23 weeks, 22 °C, EE (ethyl acetate extract of bark)",81.5 ± 3.9 ^#di %
same,concentration as compared to the initial value,"[1]; 23 weeks, 22 °C, EM (methanol extract of bark)",77.7 ± 2.9 ^#ij %
same,concentration as compared to the initial value,"[1]; 23 weeks, 22 °C, SA (aqueous solution)",23.0 ± 0.5 ^#h %
same,concentration as compared to the initial value,"[1]; 23 weeks, 22 °C, SM (methanol solution)",32.3 ± 6.3 ^#h %
same,concentration as compared to the initial value,"[1]; 23 weeks, −15 °C, EE (ethyl acetate extract of bark)",91.3 ± 4.2 ^#def %
same,concentration as compared to the initial value,"[1]; 23 weeks, −15 °C, EM (methanol extract of bark)",88.3 ± 3.4 ^#dfi %
same,concentration as compared to the initial value,"[1]; 23 weeks, −15 °C, SA (aqueous solution)",93.7 ± 0.3 ^#efg %
same,concentration as compared to the initial value,"[1]; 23 weeks, −15 °C, SM (methanol solution)",88.9 ± 3.1 ^#dfi %
same,k,"[1]; −15 °C, SA (aqueous solution)",1.70 × 10^−3 Week^−1
same,t1/2,"[1]; −15 °C, SA (aqueous solution)",407.73 Week
same,k,"[1]; −15 °C, SM (methanol solution)",3.60 × 10^−3 Week^−1
same,t1/2,"[1]; −15 °C, SM (methanol solution)",192.54 Week
same,relative concentration compared to the initial value,"[2]; 9 h, pH 1.2, 37 °C",97.1 ± 8.9 ^a %
same,relative concentration compared to the initial value,"[2]; 9 h, pH 6.8, 37 °C",97.4 ± 1.5% and 97.4 ± 1.5 ^#a %
same,relative concentration compared to the initial value,"[2]; 9 h, pH 7.4, 37 °C",96.9 ± 1.2 ^a %
same,relative concentration compared to the initial value,"[2]; 81 h, pH 1.2, 37 °C",70.5 ± 2.6% and 70.5 ± 2.6 ^#b %
same,relative concentration compared to the initial value,"[2]; 81 h, pH 6.8, 37 °C",75.3 ± 3.0% and 75.3 ± 3.0 ^#b %
same,relative concentration compared to the initial value,"[2]; 81 h, pH 7.4, 37 °C",71.5 ± 5.2% and 71.5 ± 5.2 ^#b %
same,half-life at 100 µM,"[2]; NaCl/HCl buffer, pH 1.2, 37 °C",167 h
same,half-life at 100 µM,"[2]; PBS, pH 7.4, 37 °C",166 h
same,degradation rate constant k,"[2]; pH 1.2, 37 °C",0.00415 h⁻¹
same,degradation rate constant k,"[2]; pH 6.8, 37 °C",0.00365 h⁻¹
same,degradation rate constant k,"[2]; pH 7.4, 37 °C",0.00419 h⁻¹
same,half-life at 100 µM,"[2]; sodium phosphate buffer, pH 6.8, 37 °C",190 h

# Source: article PMC10488193, “Evaluation of the Chemical Stability, Membrane Permeability and Antiproliferative Activity of Cyclic Diarylheptanoids from European Hornbeam (Carpinus betulus L.)” (International Journal of Molecular Sciences, 2023)
